The test system of data set [1] is P. aeruginosa PAO1 and QSC102. Put plainly: Bacterial growth in the PAO1 / QSC102 screening assay. The class given is cell-based, Pseudomonas aeruginosa. The following applies: in the presence of test compound. On the procedure: (§1) Microtiter plates are prepared by adding 200 μL Luria Broth (“LB”) agar, containing 0.008% 5-bromo-4-chloro-3-indolyl-β-D-galactose (X-gal) to each well. Overnight cultures of PAO1 and QSC102 are subcultured in LB to a starting absorbance at 600 nm (“A600”) of 0.05 and grown at 37° C to an A600 of 1.0. PAO1 is diluted 2.5×10^5-fold in LB and 5 μL of this is applied to the surface of the LB agar in each well. Plates are then dried in a laminar flow hood for 60 minutes. A tenfold dilution of QSC102 in LB is used to inoculate each well using a replicator. Plates are then sealed and incubated at 37° C for 40 hours. Growth and color development are evaluated visually and the data is recorded with a camera.
(§2) The test compound was present in a microtiter well and overlaid with LB agar and 5-bromo-4-chloro-3-indolyl-β-D-galactose (X-gal). Both strains were spotted on the agar in each well. […] Inhibition of signaling was evaluated qualitatively by the absence or weakening of the blue color development.

For data set [2], the system named is quorum sensing signaling (Las system), QSC102 lacZ. Put plainly: Two-strain (PAO1 / QSC102) screening assay for quorum sensing inhibiting compounds. The class given is cell-based, Pseudomonas aeruginosa. The following applies: PAO1 + QSC102 on LB agar with X-gal, visual. On the procedure:
In this example, the screening assay used two strains of P. aeruginosa: a wild type P. aeruginosa (PAO1) and QSC102, from Example 1 (see FIG. 8). This assay will detect inhibition of all aspects of quorum sensing signaling, e.g., signal generation and signal reception.
as §1, §2

For another data set, the target named is T1, RhlI (Pseudomonas aeruginosa, UniProt P54291).
T1 construct: host or cells: LasI minus strain of P. aeruginosa (as described for the cited study, Parsek et al. 1999)
The conditions noted are these: substrate of RhlI; cited from earlier work.

T1 sequence (P54291 whole entry): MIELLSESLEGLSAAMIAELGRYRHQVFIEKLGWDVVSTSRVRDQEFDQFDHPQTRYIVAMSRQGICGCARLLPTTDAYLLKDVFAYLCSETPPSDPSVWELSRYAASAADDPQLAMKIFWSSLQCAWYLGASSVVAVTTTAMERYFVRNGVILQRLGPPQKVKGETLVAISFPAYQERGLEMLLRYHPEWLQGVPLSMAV

Regarding `CC(=O)C1CCOC1=O` (stereo not drawn) [acetyl-butyrolactone], the Bacterial growth result in data set [1] is given as “not inhibited”. In data set [2], the “Concentration required to suppress color development completely” value is approximately 20 mM and the “Inhibition of signaling (blue color development)” value is “showed an inhibitory effect”.
By Km is commonly meant the concentration of substrate that gives half-maximal velocity. As to `CCCC(=O)SCCNC(=O)CCNC(=O)[C@H](O)C(C)(C)COP(=O)(O)OP(=O)(O)OC[C@H]1O[C@@H](n2cnc3c(N)ncnc32)[C@H](O)[C@@H]1OP(=O)(O)O` [butanoyl-CoA], at RhlI, the Km is 230 µM and the “vmax compared to C4-ACP” value was “one order of magnitude slower”.
For `O=C1CCCO1` [butyrolactone], the Bacterial growth entry in data set [1] was “not inhibited”. In addition, in data set [2], the “Concentration required to suppress color development completely” value was approximately 20 mM and the “Inhibition of signaling (blue color development)” value is listed as “showed an inhibitory effect”.
On to butanoyl-acyl carrier protein [C4-ACP], for which, in the data set with RhlI, the Km is 6 µM.

The values above are taken from patent US6855513B1 (priority 1999, dated 2005).
